Experimental data reported in US20030134901A1, “Lipoxin compounds and their use in treating cell proliferative disorders” (priority 1993, published 2003).

Tests used:
[1] = test system: neutrophil adhesion to endothelial cells; assay: Neutrophil adhesion assay; assay type: cell-based; conditions: read-out: IC50, PMN adhesion triggered by LTB4 to human endothelial cells; triggered by leukotriene B4
Experimental: Several of the preferred LX analogs (shown structurally as compounds 1 through 8 above) were prepared by total synthesis as described in Example 1. Following preparation and isolation of these compounds via HPLC, compounds were first assessed to determine whether they retain biological activity using the neutrophil adhesion assay and epithelial cell transmigration assays (as described in Nash, S et al., (1987) J. Clin. Invest. 80:1104-1113; Nash, S et al., (1991) J. Clin. Invest. 87: 1474-1477; Parkos, C. A. et al., (1991) J. Clin. Invest. 88:1605-1612; Parkos, C. A. et al. (1992) J. Cell. Biol. 117:757-764; Madara J. L. et al., (1992) J. Tiss. Cult. Meth. 14:209-216).

PMA-treated HL-60 cells = assay: Lipoxin metabolism / bio-half-life assay with phorbol ester-treated HL-60 cells; assay type: in vitro ADME, human; conditions: at times up to two hours
Experimental: HL-60 cells were purchased from American Type Culture Collection (Rockville, Md.), and other cell culture reagents were from GIBCO (Grand Island, N.Y.). Versene (EDTA) was from Whittaker Bioproducts (Walkersville, Md.). Synthetic 11,12-acetylenic LXA4 methyl ester and LXs were from Cascade Biochemical (Reading, U.K.). 15(S)-15-m-PGE1, PGE1, and 5-HETE were from Cayman Chemical Co. (Ann Arbor, Mich.). [11,12-^3H]LXA4 was prepared from 11,12-acetylenic LXA4 using Lindlar catalyst as a custom tritiation (NET-259, lot 0 2793-275, New England Nuclear, Boston, Mass.). Tritiated products were isolated using RP-HPLC (Fiore et al. (1992) J. Biol. Chem. 267:16168; Serhan, C. N. (1990) Meth. Enzymol. 187:167). Methoxyamine and NAD were from Sigma Chemical Company (St. Louis, Mo.). Manganese dioxide and Adams reagent were from Aldrich Chemical Co. (Milwaukee, Wis.).
Human PMN were obtained from healthy volunteers by gradient centrifugation of heparinized fresh venous blood (Böyum, A. ([…]) Scand. J. Clin. Lab. Invest. 21:77). HL-60 cells were seeded in RPMI supplemented with penicillin (100 U/ml), streptomycin (100 μ/ml), fetal bovine serum (10%) (Hyclone, Logan, Utah) and incubated (37° C. with 5% CO2 atmosphere) in plastic 250 ml flasks. Individual flasks containing […] HL-60 cells/ml were incubated in the presence or absence of phorbol 12-myristate 13-acetate (PMA) (10 or 16 nM, 24-27 h) and adherence was monitored for induction of macrophage-like phenotype as in Collins, S. J. (1987) Blood 70:1233. […]
Incubations with eicosanoids were stopped with cold methanol containing either PGB2 or 5-HETE as internal standards (5-HETE was used when 15-oxo-ETE was quantified). […] Formation of 15-oxo-ETE by 100,000 g supernatants (cf. Agins, A. P. et al. (1987) Agents Actions 21:397; Xun, C-Q. et al.(1991) Biochem. J. 279:553; and Sok, D-E. et al. (1988) Biochem. Biophys. Res. Commun. 156:524) was quantified after RP-HPLC using an ODS column (4.6 mm×25 cm) eluted with methanol/H2O/acetic acid (70:30:0.01, v/v/v) monitored at 280 nm with a flow rate of 1 ml/min. […] On-line spectra were recorded using a diode array detector (Hewlett-Packard 1040M series II) equipped with HPLC^3D ChemStation software (DOS series). […]
The “bio-half-life” of compounds 1-8 was assessed using phorbol ester-treated human promyelocytic leukemia (HL-60) cells as described in Example 2. […]

IC50 [1]: ~1 nM
recovery in the incubation medium (bio-half-life) (PMA-treated HL-60 cells): quantitatively recovered
SMILES: CCCCCC(C)(O)C=CC=CC=CC=CC(O)C(O)CCCC(=O)O (centres unmarked) [compound 2, 15-methyl-LXA4]
